In PMC11378339, “Design, synthesis, and in vitro and in silico study of 1-benzyl-indole hybrid thiosemicarbazones as competitive tyrosinase inhibitors” (RSC Advances, 2024):

Key:
mushroom tyrosinase [1] = test: Tyrosinase inhibition assay (96-well, L-DOPA substrate, dopachrome at 480 nm); type: biochemical; conditions: for IC50: mean ± SEM, triplicate, substrate L-DOPA
Method: Using a spectrophotometer microplate reader, the 96-well plate tyrosinase inhibition experiment was performed by Masamoto et al.'s protocol.[65,66] […] Then, add 60 μL of phosphate buffer and 10 μL of mushroom tyrosinase (30 U mL^−1 in phosphate buffer) to the reaction mixture incubated for 10 min at 25 °C. Following incubation, 20 μL of substrate L-DOPA (0.5 mM) in phosphate buffer was added. The end product dopachrome formation was measured at 480 nm for continues 10 min with one min interval time using 96-well ELISA plate reader (Bio-Rad xMARK microplate spectrophotometer). All of the experiments were carried out in triplicate to account for potential mistakes, and the mean findings were reported in SEM. All of the in vitro experiment results, including % inhibition and IC50 values, were examined using EZ-Fit, an enzyme kinetics tool that fits curves (Perrella Scientific Inc., Amherst, USA).
The % inhibition was computed using the formula provided below.1 [drawing 39]
EZ-FIT (Perrella Scientific, Inc., USA) was used to calculate each tested compound's IC50 value. All the experiments were performed in triplicate to reduce predicted errors, and differences in the outcomes are expressed as Standard Error of Mean values (SEM).2 [drawing 40]

mushroom tyrosinase [2] = test: Kinetic analysis of tyrosinase inhibition (Lineweaver-Burk, Dixon plot); type: biochemical; conditions: substrate L-Dopa 0.1-0.8 mM
Method: Four distinct doses of the substrate L-Dopa 0.1, 0.2, 0.4, and 0.8 mM were used in the kinetic analysis. The in vitro mechanistic study was carried out by following a similar inhibitory procedure with a similar experimental temperature and time period. […]

Row | SMILES | melting point | Percent inhibition (0.5 mM) (mushroom tyrosinase [1]) | IC50 (mushroom tyrosinase [1]) | Ki (mushroom tyrosinase [2]) | type of inhibition (mushroom tyrosinase [2])
1 | CNC(=S)N/N=C/c1cn(Cc2ccccc2)c2ccccc12 [Compound 5p, (E)-2-[(1-benzyl-1H-indol-3-yl)methylene]-N-methylhydrazinecarbothioamide] | 220 to 221 °C | 46.20% |  |  | 
2 | O=[N+]([O-])c1ccc(NC(=S)N/N=C/c2cn(Cc3ccccc3)c3ccccc23)cc1 [Compound 5q, (E)-2-[(1-benzyl-1H-indol-3-yl)methylene]-N-(4-nitrophenyl)hydrazinecarbothioamide] | 223 to 225 °C | 91.53% | 15.3 ± 0.3 µM |  | 
3 | Cc1ccc(NC(=S)N/N=C/c2cn(Cc3ccccc3)c3ccccc23)c(C)c1 [Compound 5h, (E)-2-[(1-benzyl-1H-indol-3-yl)methylene]-N-(2,4-dimethylphenyl)hydrazinecarbo thioamide] | 180 to 182 °C | 83.76% | 29.7 ± 0.72 µM |  | 
4 | S=C(N/N=C/c1cn(Cc2ccccc2)c2ccccc12)Nc1ccccc1 [Compound 5g, (E)-2-[(1-benzyl-1H-indol-3-yl)methylene]-N-phenylhydrazinecarbothioamide] |  | 81.47% | 38.3 ± 1.34 µM |  | 
5 | S=C(N/N=C/c1cn(Cc2ccccc2)c2ccccc12)Nc1ccc(Br)cc1 [Compound 5j, (E)-2-[(1-benzyl-1H-indol-3-yl)methylene]-N-(4-bromophenyl)hydrazinecarbothioamide] |  | 84.19% | 26.8 ± 0.29 µM |  | 
6 | Cc1cccc(C)c1NC(=S)N/N=C/c1cn(Cc2ccccc2)c2ccccc12 [Compound 5c, (E)-2-[(1-benzyl-1H-indol-3-yl)methylene]-N-(2,6-dimethylphenyl)hydrazinecarbo thioamide] |  | 85.66% | 27.4 ± 0.6 µM |  | 
7 | Fc1ccc(NC(=S)N/N=C/c2cn(Cc3ccccc3)c3ccccc23)cc1 [Compound 5d, (E)-2-[(1-benzyl-1H-indol-3-yl)methylene]-N-(4-fluorophenyl)hydrazinecarbothioamide] |  | 90.47% | 16.8 ± 0.38 µM |  | 
8 | S=C(N/N=C/c1cn(Cc2ccccc2)c2ccccc12)Nc1cccc(Cl)c1Cl [Compound 5f, (E)-2-[(1-benzyl-1H-indol-3-yl)methylene]-N-(2,3-dichlorophenyl)hydrazinecarbo thioamide] | 213 to 215 °C | 90.83% | 15.3 ± 0.37 µM |  | 
9 | S=C(NCc1ccccc1)N/N=C/c1cn(Cc2ccccc2)c2ccccc12 [Compound 5i, (E)-N-benzyl-2-[(1-benzyl-1H-indol-3-yl)methylene]hydrazinecarbothioamide] | 193 to 195 °C | 82.71% | 36.7 ± 1.48 µM |  | 
10 | COc1ccc(NC(=S)N/N=C/c2cn(Cc3ccccc3)c3ccccc23)cc1 [Compound 5a, (E)-2-[(1-benzyl-1H-indol-3-yl)methylene]-N-(4-methoxyphenyl)hydrazinecarbothioamide] |  | 87.15% | 24.2 ± 0.38 µM |  | 
11 | COc1cccc(NC(=S)N/N=C/c2cn(Cc3ccccc3)c3ccccc23)c1 [Compound 5l, (E)-2-[(1-benzyl-1H-indol-3-yl)methylene]-N-(3-methoxyphenyl)hydrazinecarbothioamide] |  | 84.39% | 31.6 ± 1.26 µM |  | 
12 | Cc1cc(C)cc(NC(=S)N/N=C/c2cn(Cc3ccccc3)c3ccccc23)c1 [Compound 5m, (E)-2-[(1-benzyl-1H-indol-3-yl)methylene]-N-(3,5-dimethylphenyl)hydrazine carbo thioamide] | 221 to 223 °C | 76.35% | 47.2 ± 1.27 µM |  | 
13 | S=C(NCCc1ccccc1)N/N=C/c1cn(Cc2ccccc2)c2ccccc12 [Compound 5b, (E)-2-[(1-benzyl-1H-indol-3-yl)methylene]-N-phenethylhydrazinecarbothioamide] | 198 to 201 °C | 78.35% | 45.4 ± 0.75 µM |  | 
14 | S=C(N/N=C/c1cn(Cc2ccccc2)c2ccccc12)Nc1cccc2ccccc12 [Compound 5r, (E)-2-[(1-benzyl-1H-indol-3-yl)methylene]-N-(naphthalen-1-yl)hydrazinecarbothioamide] | 199 to 201 °C | 77.86% | 34.6 ± 0.81 µM |  | 
15 | Cc1ccc(CNC(=S)N/N=C/c2cn(Cc3ccccc3)c3ccccc23)cc1 [Compound 5k, (E)-2-[(1-benzyl-1H-indol-3-yl)methylene]-N-(4-methylbenzyl)hydrazinecarbothioamide] | 223 to 225 °C | 90.84% | 12.4 ± 0.26 µM | 10.2 ± 0.006 µM | competitive
16 | S=C(NCc1ccc(Cl)cc1)N/N=C/c1cn(Cc2ccccc2)c2ccccc12 [Compound 5e, (E)-2-[(1-benzyl-1H-indol-3-yl)methylene]-N-(4-chlorobenzyl)hydrazinecarbothioamide] | 225 to 227 °C | 84.73% | 33.6 ± 1.1 µM |  | 
17 | Cc1ccc(NC(=S)N/N=C/c2cn(Cc3ccccc3)c3ccccc23)cc1 [Compound 5n, (E)-2-[(1-benzyl-1H-indol-3-yl)methylene]-N-(p-tolyl)hydrazinecarbothioamide] | 221 to 223 °C | 86.54% | 26.1 ± 0.47 µM |  | 
18 | O=[N+]([O-])c1cccc(NC(=S)N/N=C/c2cn(Cc3ccccc3)c3ccccc23)c1 [Compound 5o, (E)-2-[(1-benzyl-1H-indol-3-yl)methylene]-N-(3-nitrophenyl)hydrazinecarbothioamide] |  | 91.34% | 17.1 ± 0.28 µM |  | 
